This is an account of results in US4578382A, “4-acylamino-1-azaadamantanes, and compositions for use thereof in medicine” (Etablissements Nativelle S.A., priority 1981, dated 1986).

Series [1] deals with anesthetized dog. Briefly: Hemodynamic (cardiovascular) tolerance in the anesthetized dog. The series is classed as in vivo. To be noted: i.v., vs control period. Here is the method:
The hemodynamic tolerance of the derivatives of the invention was studied on dogs anesthesized with sodium pentobarbital. Endocavitary pressures were measured by means of catheters connected to Statham sensors while external recording of the electrocardiogram (E.C.G.) provided the measurement of cardiac frequency. Cardiac flow was measured by means of an electromagnetic sensor placed on the beginning of the aorta. The total peripheral resistances R were calculated from the value of the average aortic pressure (P) and the cardiac flow (Q) in accordance with the formula R=P/Q.
After measurement of the parameters during a control period, the derivatives were injected intravenously in cumulative doses (30 minute interval between doses). The variations of the parameters in relation to the control period were measured within 20 and 30 minutes after each injection and are expressed as a percentage of variation in relation to the control.
Table 2 summarizes the variations in hemodynamic parameters observed between the first and last injections.

In series [2] the test system is ventricular arrhythmias with adrenalin. Put plainly: Test with adrenalin after experimental infarct. It counts as in vivo, dog. The text has this:
(§1) Narcisse et al, Ann. Pharma. Fr., 37, 325-330 (1979), in the rat by the aconitine intoxication test of S. Witchitz et al, Coeur Med. Int., X(2), 281-286, (1971) and in the dog by the Harris test described in Circulation, 1, 1318, (1950) and by the test with adrenalin after experimental infarct of I. J. Steffe et al, J. Pharmacol. Exp. Ther., 214, 50-57 (1980).
2 to 5 days after an experimental infarct, the effects of discontinuous injections (in intravenous bolus of […] of basic adrenalin) of adrenalin were observed on the electrocardioagram of the conscious dog.
During a first phase (control) of the experiment, three successive injections of adrenalin were given and, in the 2 minutes following each injection, the frequency of the ventricular extrasystoles was measured. In this manner, by increasing the dose of adrenalin as necessary, it was possible to determine the dose which caused the appearance of ventricular extrasystoles at a higher frequency than or equal to half the total number of ventricular systoles.
After injection of the derivative to be tested, the same dose of adrenalin was reinjected after 5 minutes, then 30 minutes, 60 minutes, 90 minutes, etc., and its effects were compared to those observed during the control period.
The results therein are expressed as a percentage of extrasystoles (on the total number of systoles) measured during the 2 minutes following the injection of adrenalin before and after the administration of the derivative to be tested.

Series [3] has as its system anesthetized dog. Put plainly: Electrophysiological studies on the anesthetized dog. It counts as in vivo. The settings on record: i.v. The procedure: This study was carried out on dogs anesthetized with pentobarbital, with a closed thorax, by means of bipolar catheter-electrodes introduced into the cardiac cavities by transcutaneous venous and arterial means. The surface electrocardiogram (standard derivation D2) is recorded permanently.
By means of a programmable JANSEN (R) stimulator, the following parameters may be measured:
spontaneous cardiac frequency (FC);
sinus recuperation time (SRTc) after auricular stimulation imposed at 160 b/mn for 1 mn;
intracardiac conduction times (auriculohisien at a constant frequency, His-Purkinje, intraventricular);
the effective and functional refractory periods measured at an imposed constant frequency, with the extrastimulus method.
During the electrophysiological study, the derivatives were injected intravenously for 2 minutes for each dose and at 30 minute intervals between each dose. The doses are expressed as a cumulative value and as a base term.
The measurement of the various parameters was carried out before the injection of the first dose (control period) and from 10 to 28 minutes after the injection of each dose of the substance. The results are expressed as a percentage of variation in relation to the control period.

Series [4] has as its system anoxic ventricular fibrillation. Briefly: Lawson test (cardiac antifibrillatory power, chloroform). It counts as in vivo. To be noted: ip; mouse, intraperitoneal, 10 minutes before chloroform. The procedure:
The Lawson test is a test for the study of the cardiac antifibrillatory power of the derivatives. The mice (20 per group) received an intraperitoneal injection of the derivative 10 minutes before being placed in a chloroform-saturated atmosphere. Upon respiratory arrest, the thorax was opened (5 to 10 seconds) and whether or not the heart was in ventricular fibrillation was checked. The efficacy dose 50 (ED 50) of the derivative being studied is the dose which protects half the mice against anoxic ventricular fibrillation.

Series [5] is described as follows: Acute toxicity in the mouse (LD 50, Litchfield and Wilcoxon). The settings on record: in vivo. Here is the method: The acute toxicity of the derivatives of the invention were studied by intraperitoneal administration (I.P.) on the mouse (10 animals, 5 males and 5 females per dose) and calculation of the lethal dose 50 (LD 50) in accordance with the method of Litchfield and Wilcoxon (J. Pharmacol. 96, 99-113 (1949)).
In certain cases (derivatives of Examples 4, 6, 9), the LD 50 was also calculated after oral administration (P.O.) of the derivatives.

Series [6] is described as follows: Lawson test (cardiac antifibrillatory power, chloroform). The settings on record: in vivo, ip; mouse, intraperitoneal; read-out: Maximum Dose Tolerated.
The test system of series [7] is ventricular arrhythmias and death induced by the aconitine. Put plainly: Aconitine intoxication test in the anesthetized rat. It counts as in vivo. The settings on record: i.v., vs untreated control.
From the text: as §1
The anesthetized rat was intoxicated with an intravenous perfusion of aconitine while its electrocardiogram (ECG) was permanently recorded. During the perfusion at constant rate, the time necessary for the appearance of ventricular arrhythmias, successive extrasystoles (ESV), then stable ventricular tachycardium (TV) and the time within which the animal died were measured.
The animals were divided into a control group (untreated) and treated groups (different doses). The results are expressed as a percentage of prolonging the time of appearance of the arrhythmias and of death of the treated groups in reaction to the control group.
The results obtained are shown in Table 4 below and express the percentage of prolongation of the time of appearance of ventricular arrhythmias (ventricular extrasystoles and ventricular tachycardiums), and of the death, induced by the aconitine after an intravenous injection (I.V.) of several derivatives of the invention, in relation to a group of untreated control animals.

The next series concerns ventricular arrhythmias. Put plainly: Harris test (ventricular arrhythmias after experimental infarct). To be noted: cumulative dose 14 mg/kg i.v. The series is classed as in vivo, dog.
From the text: as §1
The ligature of the anterior interventricular artery in the anesthetized dog causes the appearance of an experimental infarct of the myocardium followed by considerable ventricular arrhythmias.
The dogs were studied 24 to 48 hours after the intervention. The electrocardiogram (ECG) was then recorded permanently, the conscious dog being at rest in an isolated laboratory. After a period of 3 hours of ECG recording, allowing for the measurement of the cardiac frequency of the dog the frequency of ventricular extrasystoles (ESV)--pre-treatment control period--the derivative to be studied was injected intravenously for 1 minute. Continuous recording of the ECG enabled, in the hours following the injection, measurement of the frequency of the ESV/mn for successive periods from 30 to 60 min. The number of ESV per minute measured for 3 hours during the control period varied from 66 to 172/min with an average of 111/min. […] The length of this antiarrhythmic effect observed varied depending on the derivatives from 1 hour to more than 5 hours. For example, the percentage decrease of the ESV/min in the case of the derivative of Example 11 (cumulative dose 14 mg/kg) was 96% (0 to 1/2 hour), 50% (1/2 to 1 hour) and 68% (1 to 2 hour). The corresponding values for the derivative of Example 4 (3 mg/kg) were 44%, 55% and 45%, respectively.

Where [8] appears, read: cumulative doses 0.1 to 3 mg/kg.
Where [9] appears, read: 4.3 mg/kg, control period 94% of ESV.
Setting [10] is: doses 0.5 to 5 mg/kg, 3 evaluations.
The mark [11] stands for this setting: ip, intraperitoneal, read-out: LD 50 I.P.
The mark [12] stands for this setting: 1 mg/kg, control period 48% of ESV.
Setting [13] is: doses 1 to 19 mg/kg, 2 evaluations.

Read-outs that look alike come from different tables or passages of the source.

Regarding `CC1(NC(=O)c2ccc(N)cc2)C2CC3CC1CN(C2)C3(C)C` (stereo not shown) [Example 3, N-(p-aminobenzoyl)-4-amino-4,8,8-trimethyl-1-azaadamantane], in the series on anesthetized dog [1] (setting [8]), the “Cardiac Flow, percentage of variation” value is recorded as “+7 to -32%”; the “Cardiac Frequency, percentage of variation” value fell in the range of 0 to -14%; the “Systolic Arterial Pressure, percentage of variation” value is -3 to -33%; the “Total Peripheral Resistances, percentage of variation” value is listed as -10 to +7%. Further, the “dp/dt/p Left Ventricular, percentage of variation” value in the series with anesthetized dog [1] (setting [8]) is given as “+14 to -50%”. Further, in series [2] (setting [9]), the “ESV Percentage at 5 min” value came to 63%, the “ESV Percentage at 30 min” value is given as 77% and the “ESV Percentage at 60 min” value came out at 90%. In the series on anesthetized dog [3] (setting [10]), the “F.C. (cardiac frequency), variation” value was in the range of 0 to -24%; the “HV (time of His-Purkinje conduction), variation” value is listed as “+13 to +98%”; the “PREA (effective auricular refractory period), variation” value is on record as “+2 to +50%”; the “PREV (effective ventricular refractory period), variation” value is recorded as 0 to +20%. Further, in the series on anesthetized dog [3] (setting [10]), the “QRS (time of intraventricular conduction), variation” value is “+8 to +39%” and the “St-H (time of auriculohisien conduction), variation” value is reported as “+2 to +76%”. Besides, in series [4], the ED50 – broadly, the dose at which the effect has come halfway, by size or by number of responders – was 37 mg/kg. Also, in series [5] (setting [11]), the LD50 turned out to be 95 mg/kg. Further, the MTD in series [6] amounted to 50 mg/kg.

As to `CC1(NC(=O)Cc2ccccc2)C2CC3CC1CN(C2)C3(C)C` (stereo not shown) [Example 9, N-phenylacetyl-4-amino-4,8,8-trimethyl-1-azaadamantane], in the series with anesthetized dog [1] (cumulative doses 1 to 10 mg/kg), the “Cardiac Flow, percentage of variation” value was in the range of 0 to -30%; the “Cardiac Frequency, percentage of variation” value fell in the range of 0 to -12%; the “Total Peripheral Resistances, percentage of variation” value is -5 to +15%; the “dp/dt/p Left Ventricular, percentage of variation” value is on record as 0 to -33%. Also, in series [2] (setting [12]), the “ESV Percentage at 5 min” value worked out at 11%, the “ESV Percentage at 30 min” value was 27% and the “ESV Percentage at 60 min” value was found to be 45%. Also, in the series with anesthetized dog [3] (setting [13]), the “F.C. (cardiac frequency), variation” value came to 0%; the “HV (time of His-Purkinje conduction), variation” value is “+18 to +100%”; the “PREA (effective auricular refractory period), variation” value was “+6 to +45%”; the “PREV (effective ventricular refractory period), variation” value is on record as “+2 to +15%”. In the series on anesthetized dog [3] (setting [13]), the “QRS (time of intraventricular conduction), variation” value is reported as 0 to +23% and the “St-H (time of auriculohisien conduction), variation” value is listed as 0 to +30%. The molecule also yielded an ED50 in series [4] of 90 mg/kg. Moreover, the LD50 in series [5] (setting [11]) worked out at 430 mg/kg. Moreover, the LD50 in series [5] (oral, read-out: LD 50 P.O.) came out at 2400 mg/kg. Further, in series [7] (10 mg/kg), the “Prolongation of time of appearance of ventricular extrasystoles (ESV)” value (shortened to “Prolongation of time of appearance … (ESV)”) was “+31%”, the “Prolongation of time of appearance of ventricular tachycardium (TV)” value (from here on “Prolongation of time of appearance … (TV)”) is recorded as “+79%” and the “Prolongation of time to death” value is listed as “+44%”. Also, in series [7] (20 mg/kg), the “Prolongation of time of appearance … (ESV)” value is recorded as “+100%”, the “Prolongation of time of appearance … (TV)” value is on record as “+79%” and the “Prolongation of time to death” value is recorded as “+84%”. Also, in series [7] (40 mg/kg), the “Prolongation of time of appearance … (ESV)” value is listed as “+171%”, the “Prolongation of time of appearance … (TV)” value was “+147%” and the “Prolongation of time to death” value is “+88%”. Besides, the MTD in series [6] stood at 200 mg/kg.

In the case of `CC1(NC(=O)CCCc2ccccc2)C2CC3CC1CN(C2)C3(C)C` (stereo not shown) [Example 11, N-(4-phenylbutyryl)-4-amino-4,8,8-trimethyl-1-azaadamantane], the “Percentage decrease of the ESV/min” value is given as 96% in the series on ventricular arrhythmias (0 to 1/2 hour), 50% with ventricular arrhythmias (1/2 to 1 hour) and 68% with ventricular arrhythmias (1 to 2 hour).
